The subject of data set [1] is isolated non-pregnant rat uterus. In words: Effect on isolated non-pregnant rat uterus (spontaneous contractions, organ bath). The format is cell-based. To be noted: 20 min; female SD rat uterus, estradiol-induced oestrus, Locke solution, 37° C., spontaneous contractions observed over 20 minutes. As for the experimental part:
Effect on isolated non-pregnant rat uterus
Female SD rats (150-180 g) were used. 48 and 24 hours prior to use, rats were given estradiol (ovahormon benzoat Trademark, Teikoku Hormone Mfg. Co., Ltd.) subcutaneously at a dose of 40 μg/rat to induce oestrus. The animals were killed and uteri were removed. Each strip was placed in an organ bath containing 25 ml Locke solution aerating with 95% O2, 5% CO2 at 37° C. under 1 g tension. Contractions were recorded isometrically. After the spontaneous contractions were of a uniform size, test compound was added to organ bath. The motility was observed over a 20 minutes period. Effect of test compound was calculated by comparing contractions before and after test compound.

In data set [2] the test system is isolated rat distal colon. In words: Effect on isolated rat distal colon (spontaneous contractions, organ bath). The class given is cell-based. To be noted: 0.5 h; male SD rat distal colon strip, Tyrode solution, 37° C., spontaneous contractions observed over 30 minutes. As for the experimental part:
Effect on isolated rat distal colon:
Male SD rats (180-230 g) were used. Animals were fasted for 24 hours prior to experiment. Distal colon was removed immediately after sacrifice and placed in an organ bath containing 25 ml Tyrode solution aerating with 95% O2, 5% CO2 at 37° C. The strip was mounted under 0.5 g tension and spontaneous contractions were recorded isometrically. After the mobility was of a uniform size, test compound was added to an organ bath and the contractions were observed over a 30 minutes period. Effect of test compound was calculated by comparing contractions before and after test compound.

Regarding `C=CCOc1ccccc1OCC(O)CN[C@H]1CCc2ccc(OCC(=O)OCC)cc2C1.O=C(O)C(=O)O` (stereo partly shown), the melting point (commonly the temperature of the solid-liquid transition) lay in the range of 105 to 109 °C.
The same measure, in the same setting: the result for `O=C([O-])COc1ccc2c(c1)CCCC(NC[C@H](O)COc1ccccc1)C2.[Na+]` (stereo partly drawn) [Example 11, Sodium [6,7,8,9-tetrahydro-6-[((2S)-2-hydroxy-3-phenoxypropyl)amino]-5H-benzocyclohepten-2-yloxy]acetate] reads 166 to 174 °C; that for `O=C([O-])COc1cccc2c1CCCC(NC[C@H](O)COc1ccccc1)C2.[Na+]` (stereo partly drawn) [Example 10, sodium [6,7,8,9-tetrahydro-6-[((2S)-2-hydroxy-3-phenoxypropyl)amino]-5H-benzocyclohepten-1-yloxy]acetate], 65 °C (dec.).
In the case of `CCOC(=O)COc1cccc2c1CCCC(N(Cc1ccccc1)C[C@H](O)COc1ccccc1)C2` (stereo partly drawn) [Example 1, (2S)-1-[N-benzyl-(1-ethoxycarbonylmethoxy-6,7,8,9-tetrahydro-5H-benzocyclohepten-6-yl)amino]-3-phenoxy-2-propanol], the 50% inhibitory concentration (IC50) (commonly the midpoint of a concentration-inhibition curve) is 370 nM in data set [1] and 4.2 nM in data set [2].
Regarding `CCOC(=O)COc1cccc2c1CCCC(NC[C@H](O)COc1ccccc1)C2.Cl` (stereo partly shown), the melting point fell in the range of 43 to 58 °C.
Still for that read-out and setting: as for `CCOC(=O)COc1ccc2c(c1)CC(NC[C@H](O)COc1ccccc1)CCC2.Cl` (stereo partly shown), the figure is 122 to 128 °C.

The record behind these values is US6391915B2, “Propanolamine derivatives” (Fujisawa Pharmaceutical Co., Ltd., priority 1997, dated 2002).
